System: HT-29
Test: Anticancer activity against human HT-29 cells
Type: functional, cell-based
Settings: pooled result: one value given for 4 cell lines, strains, targets or settings

- IC50: 258 nM
SMILES: COc1ccc(C2=C(c3cc(I)c(OC)c(I)c3)C(=O)OC2)cc1

— ChEMBL document CHEMBL6153024, “A novel life for antitumor combretastatins: Recent developments of hybrids, prodrugs, combination therapies, and antibody-drug conjugates” (Eur J Med Chem, 2025)
